The test system of one data set is HT-22. Nature of the data set: Cytotoxicity against mouse HT-22 cells assessed as cell viability at 1.25 to 5 uM incubated for 24 hrs by CCK8 assay. The conditions noted are these: ht-22, 24 h, dose 1.25-5 µM. It is filed as toxicity, cell-based.
Data set [1] concerns N2a. In words: Cytotoxicity against mouse Neuro2a cells assessed as cell viability at 1.25 to 5 uM incubated for 24 hrs by CCK8 assay. The conditions noted are these: dose 1.25-5 µM. It is filed as toxicity, cell-based.
Data set [2] relates to N2a. In words: Induction of neuronal differentiation in mouse Neuro2a cells assessed as neurite formation at 5 uM incubated for 48 hrs by DAPI staining based fluorescence microscopic analysis. It is filed as functional, cell-based.
Data set [3] deals with N2a. Nature of the data set: Induction of neuronal differentiation in mouse Neuro2a cells assessed as neurite elongation at 5 uM incubated for 48 hrs by DAPI staining based fluorescence microscopic analysis. It is filed as functional, cell-based.

Molecules are shown by their SMILES.

Regarding `C[C@@H]1O[C@@H](OC[C@H]2O[C@@H](Oc3c(-c4ccc(O)cc4)oc4cc(O)cc(O)c4c3=O)[C@H](O)[C@@H](O)[C@@H]2O)[C@H](O)[C@H](O)[C@H]1O` [NICOTIFLOROSIDE], the Activity entry with HT-22 is reported as “Non-toxic”.
With `C=C(c1[nH]c2ccccc2c1CN1C/C(=C/C)[C@@H]2CC(=O)c3[nH]c4ccccc4c3C[C@H]1C2C(=O)OC)[C@H]1CCN(C)C/C1=C\C` (stereo partly specified), the Activity entry with HT-22 is on record as “Non-toxic”; in the data set on N2a [1] it was “Toxic”; in the data set with N2a [2] it was “Active; Significant Efficacy Observed”; with N2a [3] it was “Active; Significant Efficacy Observed”.
On to `CC[C@H](CC[C@@H](C)[C@H]1CC[C@H]2[C@@H]3CC=C4C[C@@H](O[C@@H]5O[C@H](CO)[C@@H](O)[C@H](O)[C@H]5O)CC[C@]4(C)[C@H]3CC[C@]12C)C(C)C` [SITOGLUSIDE], for which the Activity result in the data set with HT-22 is on record as “Non-toxic”.
As to `O=C1c2c(O)cc(O)cc2O[C@H](c2cc(O)cc(O)c2)[C@H]1O`, the Activity entry with HT-22 was “Non-toxic”.
Consider `COc1cc([C@H](O)[C@H](CO)Oc2c(OC)cc([C@H](O)[C@H](O)CO)cc2OC)ccc1O` (mixture of isomers), for which the Activity entry in the data set with HT-22 is given as “Non-toxic”.
As for `O=c1cc(-c2ccccc2)oc2cc(O[C@@H]3O[C@H](CO[C@@H]4O[C@H](CO)[C@@H](O)[C@H](O)[C@H]4O)[C@@H](O)[C@H](O)[C@H]3O)c(O)c(O)c12`, the Activity entry in the data set on HT-22 is given as “Non-toxic”.
`COc1cc2oc(-c3ccc(O)cc3)cc(=O)c2c(O)c1[C@@H]1O[C@H](CO)[C@@H](O)[C@H](O)[C@H]1O[C@@H]1O[C@H](CO)[C@@H](O)[C@H](O)[C@H]1O`: the Activity result in the data set on HT-22 was “Non-toxic”.
`C[C@](O)(CC(=O)O)CC(=O)OC[C@H]1O[C@@H](OCc2ccccc2)[C@H](O)[C@@H](O)[C@@H]1O`: the Activity result in the data set with HT-22 is on record as “Non-toxic”.
With `O=c1c(O[C@@H]2O[C@H](CO)[C@@H](O)[C@H](O)[C@H]2O)c(-c2ccc(O)c(O)c2)oc2cc(O)cc(O)c12` [ISOQUERCETIN], the Activity entry with HT-22 is “Non-toxic”; with N2a [1], “Toxic”; in the data set on N2a [2], “Active; Significant Efficacy Observed”; in the data set with N2a [3], “Active; Significant Efficacy Observed”.
For `OC[C@H]1O[C@@H](Oc2c(O)cc(O)cc2[C@@H]2[C@@H](c3ccc(O)cc3)[C@H](c3ccc(O)cc3)[C@H]2c2cc(O)cc(O)c2O[C@@H]2O[C@H](CO)[C@@H](O)[C@H](O)[C@H]2O)[C@H](O)[C@@H](O)[C@@H]1O`, the Activity entry with HT-22 is on record as “Non-toxic”.
With `C=C[C@H]1[C@H](O[C@@H]2O[C@H](CO)[C@@H](O)[C@H](O)[C@H]2O)OC=C(C(=O)O)[C@H]1CC(=O)O`, in the data set on HT-22, the Activity result is on record as “Non-toxic”.
With `O=C1c2c(O)cc(O[C@@H]3O[C@H](CO)[C@@H](O)[C@H](O)[C@H]3O)cc2O[C@]1(O)Cc1ccc(O)cc1`, the Activity entry in the data set with HT-22 is on record as “Non-toxic”.
In the case of `COC(=O)[C@@H](Cc1ccc(O)c(O)c1)OC(=O)/C=C/c1ccc(OC)c(O)c1`, the Activity result with HT-22 is “Non-toxic”.
Turning to `COc1cc([C@@H]2Oc3c(OC)cc(CCCO[C@@H]4O[C@H](CO)[C@@H](O)[C@H](O)[C@H]4O)cc3[C@H]2CO)ccc1O`, in the data set on HT-22, the Activity result is “Non-toxic”.
Same read-out and setting: then `C[C@@H]1CC[C@]2(C(=O)O)CC[C@]3(C)C(=CC[C@@H]4[C@@]5(C)CC[C@H](O[C@@H]6O[C@H](C(=O)O)[C@@H](O)[C@H](OS(=O)(=O)O)[C@H]6O)[C@@](C)(CO)[C@@H]5CC[C@]43C)[C@@H]2[C@]1(C)O`, with “Non-toxic”; and `CC1=CC(=O)C[C@](C)(CO[C@@H]2O[C@H](CO)[C@@H](O)[C@H](O)[C@H]2O)[C@@]1(O)/C=C/C(C)=C/C(=O)O`, with “Non-toxic”; and `COc1cc(O)c(C(=O)CC(C)C)c2c1[C@@H]1C[C@H](C(C)C)C=C[C@]1(C)O2`, with “Non-toxic”.
Regarding `O=C(O)C1=CC[C@@H]2C(C(=O)O)=CO[C@@H](O[C@@H]3O[C@H](CO)[C@@H](O)[C@H](O)[C@H]3O)[C@H]12` [IXOSIDE], the Activity entry in the data set on HT-22 is recorded as “Non-toxic”.
As to `O=c1c(-c2ccc(O)cc2)coc2c([C@@H]3O[C@H](CO)[C@@H](O)[C@H](O)[C@H]3O)c(O)ccc12` [PUERARIN], the Activity result with HT-22 is given as “Non-toxic”.
Same read-out and setting: then `O=C(O)[C@H]1O[C@@H](O[C@@H]2[C@@H](O)[C@@H](O)CO[C@H]2c2c(O)cc3oc(-c4ccc(O)c(O)c4)cc(=O)c3c2O)[C@H](O)[C@@H](O)[C@H]1O`, with “Non-toxic”; and `C[N+](C)(C)[C@H](Cc1c[nH]c2ccccc12)C(=O)[O-]` [HYPAPHORINE], with “Non-toxic”; and `C[C@@H]1O[C@@H](Oc2ccc(CNC(=S)NCc3ccc(O[C@@H]4O[C@@H](C)[C@H](O)[C@@H](O)[C@H]4O)cc3)cc2)[C@H](O)[C@H](O)[C@H]1O`, with “Non-toxic”.
On the same count and under the same terms, in the case of `COc1ccc([C@@H]2c3cc(OC)c(O)cc3C[C@@H](C)[C@H]2C)cc1O` it was “Non-toxic”.
As for `O[C@H]1CC[C@H]2CN3CCc4c([nH]c5ccccc45)[C@@H]3C[C@@H]2C1`, the Activity entry in the data set on HT-22 is recorded as “Non-toxic”.
On to `O=C(O)[C@H]1O[C@@H](O[C@@H]2[C@@H](O)[C@H](O)[C@@H](CO)O[C@H]2c2c(O)cc3oc(-c4ccc(O)c(O)c4)cc(=O)c3c2O)[C@H](O)[C@@H](O)[C@H]1O`, for which, in the data set on HT-22, the Activity result was “Non-toxic”.

The values are drawn from ChEMBL document CHEMBL6103668, “In-Silico Screening-Based Discovery of New Natural eEF2K Inhibitors with Neuritogenic Activity” (ACS Med Chem Lett, 2025).
